Test results published in patent publication US10750742B2, “Pesticidally active pyrazole derivatives” (SYNGENTA PARTICIPATIONS AG, priority 2015, dated 2020).
Like-named read-outs stand apart in the source and are kept apart here.

Key:
Assay type in all cases: in vivo
Plutella xylostella = Plutella xylostella (diamond back moth), artificial diet test; settings: 120 h, read-out: control (mortality and growth inhibition)
Procedure: Plutella xylostella (Diamond Back Moth):
(§1) 24-well microtiter plates with artificial diet were treated with aqueous test solutions prepared from 10′000 ppm DMSO stock solutions by pipetting. After drying, the plates were infested with L2 larvae (10 to 15 per well). The samples were assessed for mortality and growth inhibition in comparison to untreated samples 5 days after infestation.

Spodoptera littoralis = Spodoptera littoralis (Egyptian cotton leaf worm), cotton leaf disc spray test; settings: foliar, 72 h, read-out: control (at least one of mortality, anti-feedant effect, growth inhibition); for percent control (mortality, anti-feedant effect or growth inhibition) at 200 ppm: application rate 200 ppm, L1 larvae, 3 days after infestation
Procedure: Spodoptera littoralis (Egyptian Cotton Leaf Worm)
Cotton leaf discs were placed on agar in 24-well microtiter plates and sprayed with aqueous test solutions prepared from 10′000 ppm DMSO stock solutions. After drying the leaf discs were infested with five L1 larvae. The samples were assessed for mortality, anti-feedant effect, and growth inhibition in comparison to untreated samples 3 days after infestation. Control of Spodoptera littoralis by a test sample is when at least one of mortality, anti-feedant effect, and growth inhibition is higher than the untreated sample.

Thrips tabaci = Thrips tabaci (onion thrips), sunflower leaf disc test; settings: foliar, 144 h, read-out: control (mortality)
Procedure: Thrips tabaci (Onion Thrips):
(§2) Sunflower leaf discs were placed on agar in 24-well microtiter plates and sprayed with aqueous test solutions prepared from 10′000 ppm DMSO stock solutions. After drying the leaf discs were infested with a thrips population of mixed ages. The samples were assessed for mortality 6 days after infestation.

Diabrotica balteata = Diabrotica balteata (corn root worm), maize sprout test; settings: 96 h, read-out: control (mortality and growth inhibition)
Procedure: Diabrotica balteata, (Corn Root Worm)
as §1, with “Maize sprouts, placed on an agar layer in 24-well” for “24-well”, “plates” for “plates with artificial diet”, “spraying.” for “pipetting.”, “(6” for “(10”, “10” for “15”, “4” for “5”

Tetranychus urticae = Tetranychus urticae (two-spotted spider mite), bean leaf disc test; settings: foliar, 192 h, read-out: control (mortality on mixed population, mobile stages)
Procedure: Tetranychus urticae (Two-Spotted Spider Mite):
as §2, with “Bean” for “Sunflower”, “discs” for “discs were placed”, “were” for “and”, “mite” for “thrips”, “on mixed population (mobile stages) 8” for “6”

Euschistus heros = Euschistus heros (neotropical brown stink bug), soybean leaf test; settings: 120 h, read-out: effect in at least one of the two categories (mortality or growth inhibition); for percent effect (mortality or growth inhibition) at 200 ppm: application rate 200 ppm, N2 nymphs, 5 days after infestation
Procedure: Euschistus heros (Neotropical Brown Stink Bug):
Soybean leaves on agar in 24-well microtiter plates were sprayed with aqueous test solutions prepared from 10′000 ppm DMSO stock solutions. After drying the leaves were infested with N2 nymphs. The samples were assessed for mortality and growth inhibition in comparison to untreated samples 5 days after infestation.

Myzus persicae = Myzus persicae (green peach aphid), sucrose solution / Parafilm test; settings: 120 h
From the text: Myzus persicae (Green Peach Aphid):
Test compounds were applied by pipette into 24 well plates and mixed with Sucrose solution. Application rate: 12.5 ppm. The plates were closed with a stretched parafilm. A plastic stencil with 24 holes is placed onto the plate and infested pea seedlings were placed directly on the Parafilm. The infested plate is closed with a gel blotting paper and another plastic stencil and then turned upside down. 5 days after infestation the samples were checked on mortality.

[1] = application rate 200 ppm, L2 larvae, 5 days after infestation
[2] = application rate 200 ppm, mixed ages, 6 days after infestation
[3] = application rate 200 ppm, L2 larvae, 4 days after infestation
[4] = application rate 200 ppm, 8 days after infestation
[5] = test rate of 12 ppm, sucrose solution, 5 days after infestation, read-out: mortality

Cn1nc(OCCC(F)=C(F)F)c(C(F)(F)F)c1-n1cc(-c2ccc(Cl)c(C(=O)NC3(C#N)CC3)c2)cn1 [compound 46]
≥ 80%: mortality at 200 ppm (Plutella xylostella; [1]) | percent control (mortality, anti-feedant effect or growth inhibition) at 200 ppm (Spodoptera littoralis) | mortality at 200 ppm (Thrips tabaci; [2])

Cn1nc(OCCCCC(F)=C(F)F)c(C(F)(F)F)c1-n1cc(-c2ccc(Cl)c(C(=O)NC3CC3)c2)cn1 [compound 29]
≥ 80%: mortality at 200 ppm (Diabrotica balteata; [3])

Cn1nc(OS(=O)(=O)C(F)(F)F)c(C(F)(F)F)c1-n1cc(-c2ccc(Cl)c(C(=O)NC3(C#N)CC3)c2)cn1 [compound 16]
≥ 80%: mortality at 200 ppm (Plutella xylostella; [1]) | percent control (mortality, anti-feedant effect or growth inhibition) at 200 ppm (Spodoptera littoralis) | mortality at 200 ppm (Tetranychus urticae; [4]) | mortality at 200 ppm (Thrips tabaci; [2]) | mortality at 200 ppm (Diabrotica balteata; [3]) | percent effect (mortality or growth inhibition) at 200 ppm (Euschistus heros)

Cn1nc(OS(=O)(=O)C(F)(F)C(F)(F)C(F)(F)C(F)(F)F)c(C(F)(F)F)c1-n1cc(-c2ccc(Cl)c(C(=O)NC3(C#N)CC3)c2)cn1 [compound 36]
≥ 80%: mortality at 200 ppm (Plutella xylostella) | mortality at 12 ppm (Myzus persicae) | mortality at 200 ppm (Thrips tabaci) | mortality at 200 ppm (Diabrotica balteata) | percent control (mortality or growth inhibition) at 200 ppm (Euschistus heros)

Cn1nc(O/C(=C\F)C(F)(F)F)c(C(F)(F)F)c1-n1cc(-c2ccc(Cl)c(C(=O)NC3(C#N)CC3)c2)cn1 [compound 49]
≥ 80%: percent control (mortality, anti-feedant effect or growth inhibition) at 200 ppm (Spodoptera littoralis) | mortality at 12 ppm (Myzus persicae; [5]) | mortality at 200 ppm (Tetranychus urticae; [4]) | percent effect (mortality or growth inhibition) at 200 ppm (Euschistus heros)

Cn1nc(OCCCCC(F)=C(F)F)c(C(F)(F)F)c1-n1cc(-c2ccc(Cl)c(C(=O)NC3(C#N)CC3)c2)cn1 [compound 21]
≥ 80%: mortality at 200 ppm (Tetranychus urticae; [4]) | percent effect (mortality or growth inhibition) at 200 ppm (Euschistus heros)

Cn1nc(OCC(F)(F)C(F)(F)C(F)(F)C(F)(F)C(F)(F)C(F)(F)C(F)(F)F)c(C(F)(F)F)c1-n1cc(-c2ccc(Cl)c(C(=O)NC3CC3)c2)cn1 [compound 31]
≥ 80%: mortality at 200 ppm (Plutella xylostella)

Cn1nc(OC(F)(F)C(F)(F)C(F)(F)C(F)(F)C(F)(F)C(F)(F)F)c(C(F)(F)F)c1-n1cc(-c2ccc(Cl)c(C(=O)NC3CC3)c2)cn1 [compound 39]
≥ 80%: mortality at 200 ppm (Plutella xylostella) | mortality at 200 ppm (Spodoptera littoralis) | mortality at 200 ppm (Tetranychus urticae) | mortality at 200 ppm (Thrips tabaci) | mortality at 200 ppm (Diabrotica balteata) | percent control (mortality or growth inhibition) at 200 ppm (Euschistus heros)

Cn1nc(SCC(F)(F)C(F)F)c(Br)c1-n1cc(-c2ccc(Cl)c(C(=O)NC3CC3)c2)cn1 [compound 57]
≥ 80%: percent control (mortality, anti-feedant effect or growth inhibition) at 200 ppm (Spodoptera littoralis)

Cn1nc(SCCC(F)(F)C(F)(F)C(F)(F)C(F)(F)C(F)(F)C(F)(F)F)c(Br)c1-n1cc(-c2ccc(Cl)c(C(=O)NC3CC3)c2)cn1 [compound 54]
≥ 80%: mortality at 200 ppm (Plutella xylostella) | mortality at 200 ppm (Spodoptera littoralis)

Cn1nc(OC(F)(F)C(F)=C(C(F)(F)F)C(F)(F)F)c(C(F)(F)F)c1-n1cc(-c2ccc(Cl)c(C(=O)NC3(C#N)CC3)c2)cn1 [compound 14]
≥ 80%: mortality at 200 ppm (Tetranychus urticae; [4])

Cn1nc(OC(F)(F)C(F)C(F)(F)F)c(C(F)(F)F)c1-n1cc(-c2ccc(Cl)c(C(=O)NCC#N)c2)cn1 (stereo not drawn) [compound 10]
≥ 80%: mortality at 200 ppm (Plutella xylostella; [1]) | percent control (mortality, anti-feedant effect or growth inhibition) at 200 ppm (Spodoptera littoralis) | mortality at 12 ppm (Myzus persicae; [5]) | mortality at 200 ppm (Tetranychus urticae; [4]) | mortality at 200 ppm (Thrips tabaci; [2]) | mortality at 200 ppm (Diabrotica balteata; [3])

Cn1nc(OC(F)(F)C(F)C(F)(F)F)c(C(F)(F)F)c1-n1cc(-c2cccc(C(=O)NC3CC3)c2F)cn1 (stereo not drawn) [compound 68]
≥ 80%: percent control (mortality, anti-feedant effect or growth inhibition) at 200 ppm (Spodoptera littoralis) | mortality at 200 ppm (Tetranychus urticae; [4]) | mortality at 200 ppm (Thrips tabaci; [2]) | mortality at 200 ppm (Diabrotica balteata; [3])

Cn1nc(OC(F)(F)C(F)C(F)(F)F)c(C(F)(F)F)c1-n1cc(-c2ccc(Cl)c(C(=O)N(/C(F)=C(\F)C(F)(F)F)C3(C#N)CC3)c2)cn1 (stereo not drawn) [compound 7]
≥ 80%: mortality at 200 ppm (Plutella xylostella; [1]) | percent control (mortality, anti-feedant effect or growth inhibition) at 200 ppm (Spodoptera littoralis) | mortality at 200 ppm (Tetranychus urticae; [4]) | mortality at 200 ppm (Thrips tabaci; [2]) | mortality at 200 ppm (Diabrotica balteata; [3])

Cn1nc(O/C(=C(/F)C(F)(F)F)C(F)(F)F)c(C(F)(F)F)c1-n1cc(-c2ccc(Cl)c(C(=O)NC3(C#N)CC3)c2)cn1 [compound 42]
≥ 80%: mortality at 200 ppm (Plutella xylostella; [1]) | percent control (mortality, anti-feedant effect or growth inhibition) at 200 ppm (Spodoptera littoralis) | mortality at 200 ppm (Diabrotica balteata; [3]) | percent effect (mortality or growth inhibition) at 200 ppm (Euschistus heros)

Cn1nc(O/C(F)=C/C(F)(F)F)c(C(F)(F)F)c1-n1cc(-c2ccc(Cl)c(C(=O)NC3(C#N)CC3)c2)cn1 [compound 48]
≥ 80%: mortality at 200 ppm (Plutella xylostella; [1]) | percent control (mortality, anti-feedant effect or growth inhibition) at 200 ppm (Spodoptera littoralis) | mortality at 12 ppm (Myzus persicae; [5]) | mortality at 200 ppm (Tetranychus urticae; [4]) | mortality at 200 ppm (Thrips tabaci; [2]) | mortality at 200 ppm (Diabrotica balteata; [3]) | percent effect (mortality or growth inhibition) at 200 ppm (Euschistus heros)

Cn1nc(OC(F)(F)C(F)(C(F)=C(F)C(F)(F)F)C(F)(F)F)c(C(F)(F)F)c1-n1cc(-c2ccc(Cl)c(C(=O)NC3CC3)c2)cn1 (stereo not drawn) [compound 51]
≥ 80%: mortality at 200 ppm (Plutella xylostella; [1]) | percent control (mortality, anti-feedant effect or growth inhibition) at 200 ppm (Spodoptera littoralis) | mortality at 12 ppm (Myzus persicae; [5]) | mortality at 200 ppm (Tetranychus urticae; [4]) | mortality at 200 ppm (Thrips tabaci; [2]) | mortality at 200 ppm (Diabrotica balteata; [3]) | percent effect (mortality or growth inhibition) at 200 ppm (Euschistus heros)

Cn1nc(OCC(F)(F)C(F)(F)C(F)(F)C(F)(F)C(F)(F)C(F)(F)C(F)(F)F)c(C(F)(F)F)c1-n1cc(-c2ccc(Cl)c(C(=O)NC3(C#N)CC3)c2)cn1 [compound 22]
≥ 80%: mortality at 200 ppm (Plutella xylostella) | mortality at 200 ppm (Spodoptera littoralis) | mortality at 200 ppm (Diabrotica balteata)

Cn1nc(OC(F)(F)C(F)(F)C(F)(F)C(F)(F)C(F)(F)C(F)(F)F)c(C(F)(F)F)c1-n1cc(-c2ccc(Cl)c(C(=O)NC3(C#N)CC3)c2)cn1 [compound 38]
≥ 80%: mortality at 200 ppm (Plutella xylostella) | mortality at 200 ppm (Spodoptera littoralis) | mortality at 200 ppm (Thrips tabaci) | mortality at 200 ppm (Diabrotica balteata) | percent control (mortality or growth inhibition) at 200 ppm (Euschistus heros)

Cn1nc(OC(Cl)(Cl)C(Cl)=C(Cl)Cl)c(C(F)(F)F)c1-n1cc(-c2ccc(Cl)c(C(=O)NC3CC3)c2)cn1 [compound 67]
≥ 80%: mortality at 200 ppm (Thrips tabaci; [2]) | mortality at 200 ppm (Diabrotica balteata; [3])

Cn1nc(OC(F)=C(F)C(F)(F)F)c(C(F)(F)F)c1-n1cc(-c2ccc(Cl)c(C(=O)NC3CC3)c2)cn1 [compound 53]
≥ 80%: mortality at 200 ppm (Plutella xylostella; [1]) | percent control (mortality, anti-feedant effect or growth inhibition) at 200 ppm (Spodoptera littoralis) | mortality at 12 ppm (Myzus persicae; [5]) | mortality at 200 ppm (Tetranychus urticae; [4]) | mortality at 200 ppm (Thrips tabaci; [2]) | mortality at 200 ppm (Diabrotica balteata; [3]) | percent effect (mortality or growth inhibition) at 200 ppm (Euschistus heros)

Cn1nc(OC(F)=C(F)C(F)(F)F)c(C(F)(F)F)c1-n1cc(-c2ccc(Cl)c(C(=O)NC3(C#N)CC3)c2)cn1 [compound 52]
≥ 80%: mortality at 12 ppm (Myzus persicae; [5]) | mortality at 200 ppm (Tetranychus urticae; [4]) | mortality at 200 ppm (Thrips tabaci; [2]) | percent effect (mortality or growth inhibition) at 200 ppm (Euschistus heros)

Cn1nc(OCCOC(F)(F)F)c(C(F)(F)F)c1-n1cc(-c2ccc(Cl)c(C(=O)NC3(C#N)CC3)c2)cn1 [compound 28]
≥ 80%: mortality at 12 ppm (Myzus persicae; [5]) | percent effect (mortality or growth inhibition) at 200 ppm (Euschistus heros)

Cn1nc(OS(=O)(=O)C(F)(F)C(F)(F)C(F)(F)C(F)(F)F)c(C(F)(F)F)c1-n1cc(-c2ccc(Cl)c(C(=O)NC3CC3)c2)cn1 [compound 37]
≥ 80%: mortality at 200 ppm (Plutella xylostella) | mortality at 12 ppm (Myzus persicae) | mortality at 200 ppm (Thrips tabaci) | mortality at 200 ppm (Diabrotica balteata) | percent control (mortality or growth inhibition) at 200 ppm (Euschistus heros)

COc1nn(C)c(-n2cc(-c3ccc(Cl)c(C(=O)N(C)C4(C#N)CC4)c3)cn2)c1C(F)(F)F [compound 56]
≥ 80%: mortality at 200 ppm (Plutella xylostella; [1]) | mortality at 12 ppm (Myzus persicae; [5]) | mortality at 200 ppm (Diabrotica balteata; [3])
